Measured values taken from patent US20050118116A1, “Dental bleaching product” (UNIVERSITAT DE LES ILLES BALEARS, LABORATORIOS KIN, S.A., priority 1999, published 2005).

Tests used:
[1] = speed with which a tetracycline solution is rendered colourless (spectrophotometer, 37° C.); format: biochemical; conditions: no peroxidase; high carbamide peroxide concentrations; FIG. 2
Text: The mouth wash consists of a 2.4% carbamide peroxide solution in 0.1 M phosphate buffer, pH 6.5 and on the other hand, a peroxidase solution (120 units of pyrogallol/ml) in 0.1 M phosphate buffer, pH 6.5 which is fed into the container in which the de-staining reaction is to take place, immediately after the mouth wash.
The substance to be rendered colourless is tetracycline, which is solublised in water at a concentration of 0.015M. The maximum tetracycline absorption wavelength has been selected so as to monitor the de-staining speed. The de-staining speed is determined using a spectrophotometer which allows the absorption to be monitored continually, the reaction tray being thermostated at 37° C. The de-staining reaction speeds have been calculated from the relations between absorbency variation and the reaction time, and they have been expressed in nKat.
The necessary quantities of tetracycline solution, the mouth wash and enzyme (in this order) are placed in the reaction tray to obtain the parameter combinations according to which it is intended to evaluate the enzyme bleaching capacity.

[2] = tooth brightness factor before/after treatment (non-limiting example in the description); conditions: 1.5% carbamide peroxide, pH 6.5 phosphates; peroxidase 20 units pyrogallol/ml where present; 64% before treatment

For `NC(N)=O.OO` [carbamide peroxide], the “carbamide peroxide concentration from which de-staining speed saturates” value [1] was “approximately 0.70 M” and the “brightness factor of a tooth after treatment” value [2] was 64%.
